From patent US20230398109A1, “USE OF PQQ AND DERIVATIVE THEREOF” (GUANGZHOU HUTONGYOUWU BIOTECHNOLOGY CO., LTD, priority 2021, published 2023)

How the values were obtained:
Format in all cases: in vivo, human
[1] = system: patients with primary dysmenorrhea; test: Treatment of patients with primary dysmenorrhea, oral PQQ vs placebo, 3 months; details: for Proportion of people with alleviation in primary dysmenorrhea (self-assessment): 50 people
Source text: Experiment number: 100 people have been diagnosed with primary dysmenorrhea, 50 people in the experimental group and the control group. Experimental method: administering PQQ orally to the patients of experimental group, administering placebo orally to the patients of control group. The duration of the experiment was 3 months, and menstrual pain was asked and recorded.

[2] = system: patients with secondary dysmenorrhea; test: Treatment of patients with secondary dysmenorrhea, oral PQQ vs placebo, 3 months; details: for Proportion of people with alleviation in secondary dysmenorrhea: 50 people
Description: Experiment number: 100 peoples have been diagnosed with secondary dysmenorrhea, with 50 peoples in the experimental group and the control group each. Experimental method: administering PQQ orally to the patients of experimental group, administering placebo orally to the patients of control group. The duration of the experiment was 3 months, and menstrual pain and pregnancy were asked and recorded. The dysmenorrhea index is determined based on the VAS scoring standard, which means patients self-evaluate the intensity of pain and the degree of psychologically unpleasant experience according to the degree of pain they feel, including: • 0 points: no pain; • 1-3 points: mild pain; • 4-6 points: moderate pain; • 7-9 points: severe pain; • 10 points: unbearable pain.

[3] = system: patients with menstrual abnormalities; test: Treatment of patients with abnormal menstruation, oral PQQ vs placebo, 3 months; details: experimental group
Description: Experiment number: 100 peoples diagnosed with menstrual abnormalities, 50 people in the experimental group and the control group each. Experimental method: administering PQQ orally to the patients of experimental group, administering placebo orally to the patients of control group. The duration of the experiment was 3 months, and menstrual conditions (duration of menstrual, consumption and weights of sanitary napkin) were measured and recorded.

SMILES: O=C(O)c1cc(C(=O)O)c2c(n1)C(=O)C(=O)c1cc(C(=O)O)[nH]c1-2 [PQQ, 4,5-dioxo-1H-pyrrolo[2,3-f]quinoline-2,7,9-tricarboxylic acid]
- Proportion of people with alleviation in primary dysmenorrhea (self-assessment) ([1]; evaluation time 1 month): 98%
- Proportion of people with alleviation in primary dysmenorrhea (self-assessment) ([1]; evaluation time 3 months): 100%
- dysmenorrhea index alleviated compared to beginning of the experiment ([1]; experimental group, 3 months): 100%
- average dysmenorrhea index (VAS score) change ([2]; FIG. 1, during treatment): decreased significantly
- Proportion of people with alleviation in secondary dysmenorrhea ([2]; evaluation time 1 month): 82%
- Proportion of people with alleviation in secondary dysmenorrhea ([2]; evaluation time 3 months): 100%
- cases that became pregnant ([2]; experimental group of 50, 3 months): 2 cases
- dysmenorrhea index alleviated compared to the beginning of the experiment ([2]; experimental group, 3 months): 100%
- average monthly menstrual bleeding duration after treatment ([3]; 3 months oral, FIG. 2): about 1 week
- decrease of average amount of menstrual bleeding ([3]; 3 months oral, FIG. 3 (sanitary napkin consumption)): more than 30%
- average monthly menstrual bleeding duration at beginning of the experiment ([3]; baseline, FIG. 2): about 2 weeks
